Data on 2 molecules can be found in patent publication US20240197761A1, “FUCOSYLATION AND IMMUNE MODULATION IN CANCER” (H. LEE MOFFITT CANCER CENTER AND RESEARCH INSTITUTE, INC., priority 2021, published 2024).

Assay [1] has as its system fucosylated HLA-DRB1 in WM793 cells. Description: Lectin-mediated proximity ligation assay (L-PLA) of fucosylated HLA-DRB1. It is filed as cell-based, human. As to conditions: vs. DMSO. The text has this:
FIGS. 22A-221 show Schematic of L-PLA staining and verification of fucosylated HLA-DRB1 staining, which is weakly associated with tumor peripheral CD4+T cells; and the effects of L-fucose on tumor PD-L1 expression (a) Schematic of lectin-mediated proximity ligation analysis (L-PLA) using fucosylated HLA-DRB1 (fuco-HLA-DRB1) as an example. We stained for (i) HLA-DRB1 using […]-HLA-DRB1 followed by (+) oligo-conjugated PLA secondary and (ii) fucosylated glycan using biotinylated (“B”) AAL lectin followed by D-biotin followed by (−) oligo-conjugated PLA secondary. Ligated PLA oligos were subjected to rolling circle amplification PCR (RCA PCR), giving rise to fluorescent punctae. […] Single melanoma marker, AAL-FITC, and HLA-DRB1 channels are shown in white for clearer visualization. […] (d) FFPE melanoma tissues were subjected to L-PLA HLA-DRB1 staining ±500 mM L-fucose wash and subsequent staining with melanoma marker (MART1+SI10 cocktail), and DAPI. Single melanoma marker and fuco-HLA-DRB1 channels are shown in white for clear visualization. Total loss of fuco-HLA-DRB1 signal in the +L-fucose wash tissue confirms the fucose-specificity of L-PLA for fuco-HLA-DRB1. […]
Laboratories (Burlingame, CA)), on coverslips overnight in 4° C. […] Microscopy images were acquired using a Keyence BZ-X710, and images were process and analyzed using FIJI (NIH).

The subject of assay [2] is PD-L1 on WM793, SW1 and SM1 cells. Kind of assay: Cell surface PD-L1 (flow cytometry). Type of assay: cell-based. As to conditions: human or mouse melanoma cells, 250 μM. The text has this: FIGS. 22A-221 show Schematic of L-PLA staining and verification of fucosylated HLA-DRB1 staining, which is weakly associated with tumor peripheral CD4+T cells; and the effects of L-fucose on tumor PD-L1 expression (a) Schematic of lectin-mediated proximity ligation analysis (L-PLA) using fucosylated HLA-DRB1 (fuco-HLA-DRB1) as an example. We stained for (i) HLA-DRB1 using […]-HLA-DRB1 followed by (+) oligo-conjugated PLA secondary and (ii) fucosylated glycan using biotinylated (“B”) AAL lectin followed by D-biotin followed by (−) oligo-conjugated PLA secondary. Ligated PLA oligos were subjected to rolling circle amplification PCR (RCA PCR), giving rise to fluorescent punctae. […] Single melanoma marker, AAL-FITC, and HLA-DRB1 channels are shown in white for clearer visualization. […] (d) FFPE melanoma tissues were subjected to L-PLA HLA-DRB1 staining ±500 mM L-fucose wash and subsequent staining with melanoma marker (MART1+SI10 cocktail), and DAPI. Single melanoma marker and fuco-HLA-DRB1 channels are shown in white for clear visualization. […]
HLA-DRB1, and PD-L1: Indicated cells were treated for 72 h with DMSO, 250 μM fucosyltransferase inhibitor (FUTi) (Millipore Sigma (St. Louis, MO)), or 250 μM of L-fucose (Biosynth (Oak Terrace, IL)). […] Samples were analyzed using FlowJo analysis software (BD Biosciences (San Jose, CA)). […]
On the technique in general: A flow cytometer gives signals particle by particle.

In the case of `CC(=O)OC1O[C@@H](C)[C@@H](OC(C)=O)[C@@H](OC(C)=O)[C@@H]1F` (some centres unmarked) [FUTi, 2F-peracteyl-fucose, reference compound], the “L-PLA staining of endogenous fucosylated HLA-DRB1” value in assay [1] is on record as “lost”.

With `C[C@H](O)[C@@H](O)[C@@H](O)[C@H](O)C=O` [L-fucose], the “cell surface levels of PD-L1” value in assay [2] is given as “does not alter”.
